{"source": "patent US20100028259A1", "about": "“USE OF ORGANIC CATION TRANSPORTERS FOR CANCER DIAGNOSIS AND THERAPY” (The Regents of the University of California, priority 2006, published 2010)", "key": {"RKO": {"system": "RKO", "assay": "MTT drug sensitivity, colon cancer cell line RKO", "format": "cell-based, human", "procedure": "(§1) Cytotoxicity of the platinum-based compounds was measured by MTT (thiazolyl blue tetrazolium bromide) assay. Cells were seeded in 100 μl of the culture medium without any antibiotics in 96-well plates at a predetermined cell density. For HEK 293 cells, poly-D-lysine coated plates were used. […] For the OCT inhibitor studies, the inhibitors (i.e., disopyramide or cimetidine) were added to the medium at a specified concentration immediately before the addition of the platinum-based compounds. After incubation for a specified time period, the drug-containing medium was replaced with fresh, drug-free medium and the incubation was continued for a total of 72 hours (start from the addition of platinum-based compounds). Then, the MTT assay was performed similarly as described in Alley et al., Cancer Res., 48:589-601 (1988). […] The maximal cell growth was the cell growth in the medium without any platinum-based compounds; C is the concentration of the platinum-based compound, and γ is the slope factor.\n(§2) The cell seeding density was 6,000-, 8,000-, 6,000-, 15,000-12,000- and 4,000 cells/well for HCT116, HT29, RKO, SW620, LS180, and DLD cells, respectively. When cimetidine (1.5 mM) was used, it was added to the wells immediately before the addition of the platinum-based drugs. The resistance factor (RF) was defined as the ratio of the mean IC50 value in the presence to that in the absence of cimetidine. Data are expressed as mean±SD from six measurements, and each measurement was performed in quadruplicate."}, "LS180": {"system": "LS180", "assay": "MTT drug sensitivity, colon cancer cell line LS180", "format": "cell-based, human", "procedure": "as §1, §2"}, "[1]": {"system": "six colon cancer cell lines", "assay": "MTT drug sensitivity, summary over the six colon cancer cell lines", "format": "cell-based, human", "procedure": "as §1\nThe resistance factor (RF) due to the presence of cimetidine was defined as the ratio of the IC50 value in the presence of cimetidine to that in the absence of cimetidine.\nas §2"}, "HEK-MOCK cells": {"system": "HEK-MOCK cells", "assay": "Cellular accumulation of platinum in HEK-MOCK cells (ICP-MS)", "format": "in vitro ADME, human", "settings": "cimetidine 1.5 mM", "procedure": "For the inhibitor studies, the incubation medium also contained disopyramide (150 μM). […] For the inhibitor studies, the incubation medium also contained cimetidine (1.5 mM). […] After drug exposure, the cells were washed with ice-cold PBS three times and harvested by scraping and centrifugation. The cell-associated platinum was determined by ICP-MS and normalized for protein content. Data are expressed as mean±SD from a single experiment performed in triplicate. Experiments were replicated for OCT1 and OCT2, and similar results were obtained.\nThe cellular accumulation of platinum was determined as described in Holzer et al., Mol. Pharmacol., 66:817-823 (2004) with some modifications. Briefly, the cells were grown in 100 mm×20 mm dishes in the culture medium without any antibiotics to over 90% confluence. For HEK 293 cells, poly-D-lysine coated dishes were used. For platinum accumulation, the cells were incubated in the culture medium containing the indicated concentrations of the platinum compounds at 37° C. in 5% CO2 for 2 hr unless specified. […] The platinum content was measured by inductively plasma coupled mass spectrometry (ICP-MS) in the Analytical Facility at the University of California at Santa Cruz (Santa Cruz, Calif.). […]"}, "HEK-hOCT2 cells": {"system": "HEK-hOCT2 cells", "assay": "Platinum-DNA adduct formation in HEK-hOCT2 cells", "format": "cell-based, human", "settings": "2-hr exposure", "procedure": "After incubation at 37° C. and 5% CO2 for 2 hours, the cells were washed with ice-cold PBS three times and harvested. The genomic DNA was isolated from the cells and the platinum content associated with DNA was determined by ICP-MS and normalized for DNA content. Data are expressed as mean±SD from a typical experiment performed in triplicate. Two independent experiments were conducted and similar results were obtained.\nThe platinum content associated with genomic DNA was determined as described in Samimi et al., Clin. Cancer Res., 10:4661-4669 (2004) with some modifications. Briefly, the cells were grown in 100 mm×20 mm dishes in the culture medium without any antibiotics to over 90% confluence. For HEK 293 cells, poly-D-lysine coated dishes were used. Then, the cells were incubated in the culture medium containing the specified concentrations of the platinum-based compounds at 37° C. in 5% CO2 for 2 hours (or 25 min as specified). In some experiments, phosphate buffer (PB: 1.06 mM KH2PO4, 2.97 mM Na2HPO4, pH 7.4) containing 155 mM NaCl (PB—Cl buffer) or 103 mM Na2SO4 (PB—SO4 buffer) was used instead of the culture medium as specified. For the OCT inhibitor study, the incubation medium (buffer) also contained disopyramide or cimetidine). If PB—Cl or PB—SO4 buffer was used, the cells were washed with the same buffer once before drug incubation. After incubation, the cells were washed with ice-cold PBS, scraped, and pelleted. Genomic DNA was isolated from the cell pellets using the Wizard® Genomic DNA Purification Kit (Promega, Madison, Wis.) following the manufacturer's instructions. Briefly, the cells were lysed with Nuclei Lysis Solution. After RNA digestion and protein precipitation, the lysates were centrifuged and the resulting supernatant was aliquoted. The genomic DNA prepared from two different aliquots of the supernatant was used for platinum and DNA content determination, respectively. For the determination of platinum, the DNA samples were treated with 70% nitric acid at 65° C. and diluted in the same way as described above. The platinum content was analyzed using ICP-MS and the DNA content was measured by absorption spectroscopy."}}, "note": "Where two headings read alike, the source gives them in different places."}
{"smiles": "O=C1[O][Pt]2([NH][C@@H]3CCCC[C@H]3[NH]2)[O]C1=O", "note": "[oxaliplatin]", "values": [{"measurement": "IC50", "setting": "RKO; absence of cimetidine, read-out: IC50 Control", "value": "1.64 ± 0.56", "unit": "µM"}, {"measurement": "IC50", "setting": "RKO; cimetidine 1.5 mM, read-out: IC50 Cimetidine-treated", "value": "9.7 ± 2.7", "unit": "µM"}, {"measurement": "IC50", "setting": "LS180; LS180, absence of cimetidine, read-out: IC50 Control", "value": "1.3 ± 0.41", "unit": "µM"}, {"measurement": "IC50", "setting": "LS180; LS180, cimetidine 1.5 mM, read-out: IC50 Cimetidine-treated", "value": "8.39 ± 2.77", "unit": "µM"}, {"measurement": "IC50", "setting": "[1]; absence of cimetidine, read-out: mean±SE of IC50 in the six cell lines, control", "value": "3.88 ± 1.42", "unit": "µM"}, {"measurement": "IC50", "setting": "[1]; cimetidine 1.5 mM, read-out: mean±SE of IC50 in the six cell lines, in the presence of cimetidine", "value": "29.1 ± 10.7", "unit": "µM"}, {"measurement": "effect of cimetidine on platinum accumulation / cellular uptake in HEK-MOCK", "setting": "HEK-MOCK cells", "value": "significant decrease"}, {"measurement": "platinum-DNA adduct level in HEK-hOCT2, cimetidine", "setting": "HEK-hOCT2 cells; cimetidine 1.5 mM", "value": "0.00216±0.00031", "unit": "pmol/μg DNA"}, {"measurement": "rb in HEK-hOCT2, cimetidine", "setting": "HEK-hOCT2 cells; cimetidine 1.5 mM", "value": "7.13±1.02×10^−7"}, {"measurement": "platinum-DNA adduct level in HEK-hOCT2", "setting": "HEK-hOCT2 cells; oxaliplatin 0.6 μM", "value": "0.0284±0.0020", "unit": "pmol/μg DNA"}, {"measurement": "rb in HEK-hOCT2", "setting": "HEK-hOCT2 cells; oxaliplatin 0.6 μM", "value": "9.37±0.66×10^−6"}]}
